Measured values taken from PMC7395068, “The evolution of strategies to minimise the risk of human drug-induced liver injury (DILI) in drug discovery and development” (Archives of Toxicology, 2020).
Read-outs that look alike come from different tables or passages of the source.

Legend:
[1] = plasma free fraction; cited from earlier work
[2] = test system: PHH; conditions: cited from earlier work
[3] = cited from earlier work
[4] = test system: primary human hepatocytes, NIH3T3 fibroblasts, BSEP, CYP3A4; conditions: cited from earlier work
[5] = test system: hLiMTs; test: Combined HCI (HCS) and cellular ATP 3D assay in hLiMTs; conditions: for AC50 / minimal effective concentration: Homo sapiens
[6] = test system: hLiMTs; conditions: cited from earlier work
[7] = cited from earlier work; remark: listed apart in the source
[8] = test system: HepaRG spheroids; test: Combined HCI (HCS) and cellular ATP 3D assay in HepaRG spheroids; conditions: for AC50 / minimal effective concentration: Homo sapiens
[9] = test system: HepG2 C3A spheroid, BSEP, Glu/Gal in HepG2 cells, bioactivation; conditions: cited from earlier work
[10] = ref Chen 2011; cited from earlier work
[11] = test system: THLE or HepG2 cells, isolated mitochondria, BSEP; conditions: cited from earlier work
[12] = In vitro Assay, ref Proctor 2017
[13] = In vitro Assay, ref Schadt 2015
[14] = Microtissue model structural based (HCI), combined HCS and ATP, MEC < 25 × Cmax.tot cut-off
[15] = Modeled in vitro assays (cytotoxicity, mitochondrial dysfunction, BSEP), ref Aleo et al. 2019

CS(=O)(=O)CCNCc1ccc(-c2ccc3ncnc(Nc4ccc(OCc5cccc(F)c5)c(Cl)c4)c3c2)o1 [lapatinib]
fu [1]: 0.010
PHH/100uM, Proctor (2017) ([2]; 2D PHH, ATP, IC50 threshold 100 µM, ref Proctor et al. 2017): +VE (IC50 threshold of 100 µM)
PHH ATP <100uM [2, 12]: +VE (IC50 threshold of 100 µM)
DILI severity category (Chen et al. [2016]) ([3]; LTKB DILIrank category, ref Chen et al. 2016): Most
DILI severity category (Chen 2016) ([3]; human DILI classification, LTKB DILIrank, ref Chen et al. 2016): Most
DILI severity category ([3]; human DILI severity, ref Chen et al.): Most
DILI +VE (5-8), DILI -VE (-4) ([3]; ref Chen 2016): +VE
DILI severity category ([3]; ref Chen 2016): vMost-DILI-Concern
DILI in vitro assay prediction, Schadt (2015) ([4]; BSEP & Metabolism based, ref Schadt et al. 2015): +VE
Cellular toxicity (3T3 cells) [4, 13]: +VE
GSH adduct HML [4, 13]: +VE
Hepatocyte cellular toxicity [4, 13]: -VE
MitoTox 3T3 [4, 13]: -VE
TDI CYP3A4 [4, 13]: +VE
hBSEP inhibition [4, 13]: -VE
AC50 ([5]; read-out: ATP endpoint AC50): 30.1 µM
minimal effective concentration ([5]; read-out: ATP endpoint MEC): 12.6 µM
AC50 ([5]; read-out: HCS endpoint AC50): 30.7 µM
minimal effective concentration ([5]; read-out: HCS endpoint MEC): 1.79 µM
DILI prediction hLiMTs (HCS-MEC) [5, 14]: +VE (MEC < 25 × Cmax.tot cut-off)
hLiMTs <25x Avg Cmax ATP ([5]; hLiMTs, ATP endpoint, cut-off <25x Avg Cmax): +ve
hLiMTs <100x Avg Cmaxu ATP ([5]; hLiMTs, ATP endpoint, cut-off <100x Avg Cmaxu): -ve
hLiMTs <25x Avg Cmax HCS ([5]; hLiMTs, HCS endpoints, cut-off <25x Avg Cmax): +ve
hLiMTs <100x Avg Cmaxu HCS ([5]; hLiMTs, HCS endpoints, cut-off <100x Avg Cmaxu): +ve (<100x Avg Cmaxu)
hLiMTs <25x Avg Cmax All ([5]; hLiMTs, all endpoints (ATP and HCS), cut-off <25x Avg Cmax): +ve
hLiMTs Cmax max All ([5]; hLiMTs, all endpoints, Cmax max used): +ve
hLiMTs Cmax min All ([5]; hLiMTs, all endpoints, Cmax min used): +ve
hLiMTs <10 uM All ([5]; hLiMTs, all endpoints, cut-off <10 uM): +ve (<10 uM)
hLiMTs <100x Avg Cmaxu All ([5]; hLiMTs, all endpoints, cut-off <100x Avg Cmaxu): +ve (<100x Avg Cmaxu)
hLiMTs ATP <100uM [6, 12]: +VE (IC50 threshold of 100 µM)
hLiMTs/100uM, Proctor (2017) ([6]; hLiMTs, ATP, IC50 threshold 100 µM, ref Proctor et al. 2017): +VE (IC50 threshold of 100 µM)
Assigned DILI category ([7]; Chen et al. 2016 or literature alignment, ref Chen et al. 2016): 3
In vivo DILI ([7]; ref Aleo 2019): +VE
In vivo DILI ([7]; ref Proctor 2017): +VE
In vivo DILI ([7]; ref Schadt 2015): +VE
In vivo DILI ([7]; ref Williams 2019): +VE
HepaRG <25x Avg Cmax ATP ([8]; HepaRG, ATP endpoint, cut-off <25x Avg Cmax): +ve
HepaRG <100x Avg Cmaxu ATP ([8]; HepaRG, ATP endpoint, cut-off <100x Avg Cmaxu): +ve (<100x Avg Cmaxu)
HepaRG <25x Avg Cmax HCS ([8]; HepaRG, HCS endpoints, cut-off <25x Avg Cmax): +ve
HepaRG <100x Avg Cmaxu HCS ([8]; HepaRG, HCS endpoints, cut-off <100x Avg Cmaxu): +ve (<100x Avg Cmaxu)
HepaRG <25x Avg Cmax All ([8]; HepaRG, all endpoints (ATP and HCS), cut-off <25x Avg Cmax): +ve
HepaRG Cmax max All ([8]; HepaRG, all endpoints, Cmax max used): +ve
HepaRG Cmax min All ([8]; HepaRG, all endpoints, Cmax min used): +ve
HepaRG <10 uM All ([8]; HepaRG, all endpoints, cut-off <10 uM): +ve (<10 uM)
HepaRG <100x Avg Cmaxu All ([8]; HepaRG, all endpoints, cut-off <100x Avg Cmaxu): +ve (<100x Avg Cmaxu)
AC50 ([8]; HepaRG, read-out: ATP endpoint AC50): 2.11 µM
minimal effective concentration ([8]; HepaRG, read-out: ATP endpoint MEC): 1.21 µM
AC50 ([8]; HepaRG, read-out: HCS endpoint AC50): 2.25 µM
minimal effective concentration ([8]; HepaRG, read-out: HCS endpoint MEC): 0.768 µM
DILI prediction HepaRG spheroids (HCS-MEC) [8, 14]: +VE (MEC < 25 × Cmax.tot cut-off)
Bayesian Machine Learning DILI prediction, Williams (2019) ([9]; Bayesian modeling, ref Williams et al. 2019): +VE
Bayesian Machine Learning ([9]; In vitro Assay, ref Williams 2019): +VE
DILI Score (FDA) (1-8) [10]: 8
Partition Hybrid HRM Score ([11]; In vitro Assay, ref Aleo 2019): +VE
Ro2 Hybrid HRM Score ([11]; In vitro Assay, ref Aleo 2019): +VE
Partition Hybrid HRM Score ≥4, Aleo (2019) [11, 15]: +VE (Partition Hybrid HRM Score ≥4)
Partition Hybrid HRM Score ≥8, Aleo (2019) [11, 15]: +VE (Partition Hybrid HRM Score ≥8)
Rule of Two hybrid HRM Score ≥3, Aleo (2019) [11, 15]: +VE (Rule of Two hybrid HRM Score ≥3)
Rule of Two hybrid HRM Score ≥8, Aleo (2019) [11, 15]: +VE (Rule of Two hybrid HRM Score ≥8)
